Consider four molecules from patent US20210393549A1, “New use of R-enantiomer of adrenergic beta 2 receptor agonists for treatment of inflammatory bowel disease and its extra intestinal manifestations” (priority 2018, published 2021).

“Also recorded” adds a separate entry of the source. Like-named read-outs stand apart in the source and are kept apart here.

Data set [1] has as its system DSS induced sub-acute colitis. The format is in vivo. Particulars: for Col Length (colon length) / DAI (disease active index) / FOB (fecal occult blood) / Hist score (histological score) / Weight: one week treatment, evaluation at 23rd day, R-S, S-S 1 mg/kg, R-B, S-B 10 mg/kg; for fecal occult blood, in words: day 14th and 22nd. Also noted: DAI (disease active index) / FOB (fecal occult blood) / Hist score (histological score): scale not given here; Weight / Col Length (colon length): unit not given here. From the text:
This invention also disclosed the used of R-salbutamol for treatment of sub acute or chronic phases of IBD. In one embodiment, IBD was induced by DSS as mentioned above, along with the treatment of R-salbutamol, at day 7th, DSS was removed and replaced with drinking water for additional 2 weeks. The disease active index (DAI) of mice was examined and evaluated periodically. The mice were scarified for pathological and histological evaluations at day of 23rd. In DSS induce IBD mice, there were significant loss of weight and fecal occult blood at day 14th and 22nd. The overall condition of colitis was severe although there was slightly improvement comparing the day 7th. The colon-rector length was significant shortened, and histological score were significant higher from control. In mice with DSS induced colitis, there were significant mononuclear leucocytes infiltration, few newly grew crypts with architectural disarray, denegation of epithelia, mucosa aberrant. There was also deep mucosal lymphocytosis, destruction of lamina propria and sometimes, transmural inflammation.
Same as example 1, except • 1), Three weeks' study with one week treatment.
DSS and all the treatment was removed and replaced with drinking water at the end of 1st week. Mice were given drink water and food ad libitum for additional 2 weeks.

Data set [2] has as its system IMQ-induced Psoriasis-Like Skin lesions. Description: IMQ-induced psoriasis-like skin lesions. Format: in vivo, mice. The settings on record: dorsal skin, IMQ-induced psoriasis mice. The protocol:
Mice were divided into control, psoriasis and psoriasis plus treatment groups, (n=8 in each group). Psoriasis were induced by topical application of imiquimod cream (62.5 mg) on shaved dorsal skin for seven consecutive days. Vaseline was used in control group. There were four treatment groups: three doses of R-salbutamol (R-Sal) (0.5 mg, 1 mg, 2 mg/kg) and Dexamethasone (1 mg/kg) as positive control. All the treatments and same volume of saline (in control group) were administered orally. In some experiment, R-bambuterol (long-last beta2 agonist) was used as an additional treatment group (n=3). Psoriasis Area Severity Index were used for evaluation. Each of the scores for erythema, scaling and skin thickness were measured separately and then group together as a calculative score. (FIG. 2)

Data set [3] has as its system TNBS-induced colitis. Description: TNBS-induced colitis (model for Crohn's disease). Format: in vivo, Male mice. From the text:
Male mice colitis was induced by rectal co-administration of ethanol and TNBS (Trinitrobenzenesulfonic acid). Severe colitis in mice that was characterized by weight loss and diarrhea. Histologically there were loss of normal structures, visible discrete epithelioid granuloma, multiple erosive lesions, massive transmural inflammation infiltration of lymphocytes, and the loss of goblet cells. […] There was significant alleviation of lesions, few inflammatory infiltration with growing crypts and recovery mucosa epithelia along the column. […] In addition, in TNBS treated colitis mice, there were perianal symptoms: erythema, abscesses and ulcers found in some mice, which may lead to perianal fissures or fistulas. […] The therapeutically effects of R-salbuterol, R-clenbuterol and R-bambuterol on the symptoms in TNBS induced Crohn's disease has never been reported in prior art.

The test system of data set [4] is hemorrhoid inflammation symptoms. Description: Hemorrhoid inflammation symptoms, oral or topical. Format: in vivo. The settings on record: given either orally or topically. From the text: These perianal pathological changes somewhat similar to hemorrhoid inflammation symptoms. […] This new used of beta2 agonists in treatment of hemorrhoid inflammation symptoms has never been disclosed in prior art.

Data set [5] deals with DSS induced sub-acute colitis. Description: Prolonged (two weeks) treatment in DSS induced sub-acute colitis. Format: in vivo, mice. Particulars: evaluation at 23rd day, salbutamol 1 mg/kg, bambuterol 10 mg/kg. From the text: Same as example 2, except. 1), Two Weeks Treatment within a Three Weeks of Study
DSS was removed from drinking water at the end of 1st week. The treatments were started at 1st day for consecutive 14 days (2 weeks). Only drinking water given for the 3rd week. The evaluation and examination were made at 23rd day as did in example 1.

Data set [6] has as its system DSS induced acute colitis. Particulars: for colon histology (H&E), in words: Example 1, compared with untreated DSS mice; for Hist score (histological score): epithelium 0-4 plus infiltration 0-4; for Hist score (histological score) / Col Length (colon length): tenth day; for Hist score (histological score) / FOB (fecal occult blood) / Weight / DAI (disease active index) / Col Length (colon length): 1 mg/kg (R-B, S-B 10 mg/kg; RS-C 2 mg/kg); for Hist score (histological score) / FOB (fecal occult blood) / Weight / Col Length (colon length): mean ± SD; for FOB (fecal occult blood): grade 0, 2, 4; for FOB (fecal occult blood) / Weight / Col Length (colon length): i.g. daily 8 days; for DAI (disease active index): score 0 to 12, i.g. daily 8 days from 2nd day of DSS, n=5. From the text:
In one embodiment, IBD was induced in mice by add DSS into drink water for 7 days. […] (Cooper, S. et al., Clinic pathologic study of dextran sulfate sodium experimental murine colitis, Laboratory Investigation, vol. 69, no. 2, p. 238-249, 1993)
The mice were scarified at day 10th for anatomy and histology evaluations. […] Each of the above histological features was scored individually and added together which is then collectively expressed as “histological score”, for quantitative evaluation (Cooper, S. et al., above).
Male C57BL mice (8-10 weeks, 18-20 g) were grouped into control (drinking water only), DSS and DSS plus treatment groups (n=5). Acute colitis was induced by feeding mice with 2% (w/v) dextran sulfate sodium (DSS) (molecular mass 36-50 kDa) added to the drinking water given ad libitum for 7 days. At the end of seventh day, DSS was removed and animals received only drinking water for 2 days. The animals were euthanized for anatomical and histological examination at the tenth day after DSS ingestion.
R-salbutamol (R-S) (1 mg/kg, S-salbutamol (S-S) (1 mg/kg), R-terbutaline (R-T) (1 mg/kg), S-terbutaline (S-T) (1 mg/kg), R-bambuterol (10 mg/kg), S-bambuterol (S-B) (10 mg/kg), R-clenbuterol (R-C) (1 mg/kg), RS-clenbuterol (RS-C) (2 mg/kg) were administered i.g. daily, starting from the 2nd day of DSS induction for consecutive 8 days. Dexamethasone (Dex), 1 mg/kg) was used as a reference drug.
Evaluation of disease symptoms and histological changes Disease activity index (DAI): Animals were monitored daily for weight, water/food consumption, morbidity, stool consistency and fecal blood. […] The colon length was recorded as an indicator of inflammation. The entire colon was cut open longitudinally and gently flushed with sterile phosphate-buffered saline (PBS) to remove any traces of feces for pathology preparation. Colon segments were fixed in 10% neutral buffered formalin. Tissues were embedded in paraffin, sectioned, mounted on slides. H&E-stained paraffin section images were acquired. Pathological evaluation was conducted in a blinded manner.
Histological Score: the scores were given as follows: epithelium, 0=normal morphology, 1=loss of goblet cells, 2=loss of goblet cells in large areas, 3=loss of crypts, and 4=loss of crypts in large areas; and inflammation cells infiltration, 0=no infiltrate, 1=infiltrate around the crypt basis, 2=infiltrate reaching the muscularis mucosae, 3=extensive infiltration reaching the muscularis mucosae and thickening of the mucosa with abundant edema, and 4=infiltration of the submucosa. Data were presented as mean±the standard deviation (SD).

In data set [7] the test system is knee joints (articular cartilage, meniscus). The experiment in a line: Damage of knee joints in DSS induced IBD mice. Format: in vivo. Particulars: compared with untreated DSS mice. From the text:
In one embodiment, in DSS induced IBD mice, there was also a damage of knee joints. The articular cartilage structure became thinner and partially destroyed. The chondrocytes were degenerated, decreased and clustered. The meniscuses were damaged and lost its structural integrity. In X-ray, the layer of articular cartilage was thinner and bone structure was decreased. […] The articular cartilage and bone structure increased toward normal.

Data set [8] relates to psoriasis and eczema. The experiment in a line: Oral administration in rats, psoriasis and eczema. Format: in vivo.
Data set [9] has as its system acne, maliaria, hives and eczema. Description: Topical use on acne, maliaria, hives and eczema. Format: in vivo.
[10] abbreviates: sub-acute or chronic DSS colitis, compared with untreated DSS mice.
Setting [11] is: acute DSS colitis, compared with untreated DSS mice.

With `CN(C)C(=O)Oc1cc(OC(=O)N(C)C)cc([C@@H](O)CNC(C)(C)C)c1` [R-B, R-bambuterol], in [1], the “Col Length (colon length)” value turned out to be 7.9 ± 0.3, the “DAI (disease active index)” value is given as 6, the “FOB (fecal occult blood)” value was determined as 1.1 ± 0.5 and the “Hist score (histological score)” value is on record as 4 ± 1. This molecule showed a Weight in [1] of 112 ± 0.6. Also, in data set [1] (setting [10]), the “DAI, in words” value was “significantly improved”; the “histological index / histological score, in words” value is reported as “significantly improved; also recorded: significantly ameliorated”; the “fecal occult blood, in words” value is listed as “significantly reduced”. In data set [2], the “histology of psoriasis skin lesions (HE)” value is listed as “mostly recovered”. Besides, in [3] (TNBS treated mice), the “perianal manifestations (erythema, abscesses, ulcers)” value is on record as “significantly alleviated”. Moreover, the hemorrhoid inflammation symptoms result in data set [4] is “significantly alleviated”. Besides, in data set [5], the “DAI, in words” value is “return toward normal” and the “histological score, in words” value was “return toward normal”. For the same molecule, in data set [6], the “colon histology (H&E), in words” value was “greatly improved”; the “Hist score (histological score)” value is 5 ± 0.5; the “FOB (fecal occult blood)” value was 1 ± 0.5; the Weight came to 92 ± 3.3. Further, in data set [6], the “DAI (disease active index)” value came to 6 and the “Col Length (colon length)” value is listed as 7.2 ± 0.2^. Besides, the “damage of articular cartilage, meniscus and bone structure of knee joints” value in data set [7] is on record as “significantly ameliorated”.

Take `CC(C)(C)NC[C@H](O)c1cc(Cl)c(N)c(Cl)c1` [R-C, R-clenbuterol]: in data set [1] (setting [10]), the “DAI, in words” value is given as “significantly improved” and the “histological index / histological score, in words” value was “significantly improved”. The psoriasis and eczema entry in data set [8] is reported as “significantly ameliorate”. The “symptoms of acne, maliaria, hives and eczema” value in [9] is given as “significantly alleviated”. For the same molecule, the “submucosa fibrosis and narrowing of intestinal lumen” value in [3] (TNBS treated mice) is reported as “not seen”. Besides, in [3] (oral administration), the “weight loss, diarrhea, colon length versus normal control mice” value is recorded as “No significant different”. Also, the “disease condition of TNBS colitis, in words” value in data set [3] (oral administration (R-enantiomers)) is “great ameliorated”. Besides, the hemorrhoid inflammation symptoms result in data set [4] was “significantly alleviated”. Besides, in [6], the “colon histology (H&E), in words” value is given as “greatly improved”; the “Hist score (histological score)” value is recorded as 4.5 ± 0.5^; the “FOB (fecal occult blood)” value came out at 2 ± 0.5; the Weight is 89 ± 2.0. Also, in data set [6], the “DAI (disease active index)” value was determined as 5 and the “Col Length (colon length)” value was determined as 7 ± 0.7.

Turning to `CC(C)(C)NC[C@H](O)c1cc(O)cc(O)c1` [R-T, R-terbutaline], in data set [1] (setting [10]), the “DAI, in words” value is reported as “significantly improved” and the “histological index / histological score, in words” value is recorded as “significantly improved”. In addition, the psoriasis and eczema entry in data set [8] was “significantly ameliorate”. The “symptoms of acne, maliaria, hives and eczema” value in [9] was “significantly alleviated”. Moreover, in [6], the “colon histology (H&E), in words” value was “greatly improved”; the “Hist score (histological score)” value is 6.0 ± 1^; the “FOB (fecal occult blood)” value stood at 2 ± 0; the Weight came out at 88 ± 1.7. For the same molecule, in data set [6], the “DAI (disease active index)” value came to 8 and the “Col Length (colon length)” value stood at 6.6 ± 0.3.

Regarding `CC(C)(C)NC[C@@H](O)c1ccc(O)c(CO)c1` [S-S, S-salbutamol], in data set [1], the “Col Length (colon length)” value amounted to 6.5 ± 0.9, the “DAI (disease active index)” value is 13, the “FOB (fecal occult blood)” value was found to be 4.5 ± 0.3 and the “Hist score (histological score)” value is reported as 7.7 ± 0.5. The same molecule came in with a Weight in data set [1] of 95 ± 0.8. In addition, in data set [1] (sub-acute DSS colitis, compared with untreated DSS mice), the “length of colon-rectors, in words” value was “shorter”. Further, the “body weights, in words” value in data set [1] (sub-acute or chronic DSS colitis) was “lower”. Moreover, in [1] (setting [10]), the “DAI, in words” value is “much worse”; the “histological index / histological score, in words” value is “markedly higher than untreated DSS mice”; the “fecal occult blood, in words” value is “more severe”. Besides, in data set [2], the “histology of psoriasis skin lesions (HE)” value was “worsened the psoriasis histology”. In addition, in data set [5], the “DAI, in words” value was “markedly higher than untreated DSS group” and the “histological score, in words” value is “markedly higher than untreated DSS group”. Besides, in data set [6], the “colon histology (H&E), in words” value was “no signs of improvements”; the “Hist score (histological score)” value is 7.9 ± 0.5; the “FOB (fecal occult blood)” value came to 4.5 ± 0.5; the Weight is recorded as 80 ± 2.3. In data set [6], the “DAI (disease active index)” value is reported as 13 and the “Col Length (colon length)” value came out at 6.0 ± 0.9. The “toxic effects on the bowel” value in data set [6] (S-enantiomers in DSS mice) is “toxic to the bowel”. For the same molecule, the “effects in prevent and treatment of DSS induced IBD, in words” value in [6] (acute DSS colitis) is listed as “no amelioration or therapeutic effects at all”. Besides, in data set [6] (setting [11]), the “DAI, in words” value is listed as “significantly exacerbated”; the “FOB, in words” value is given as “significantly worsened”; the “histological score, in words” value was “significantly higher than untreated DSS mice”; the “length of colon-rector / shortening of large bowel, in words” value is reported as “further shortened”. In addition, in [7], the “damage of articular cartilage, meniscus and bone structure of knee joints” value is reported as “exacerbated”.
